Reference: patent publication US9062048B2, “Cyclohexyl-azetidinyl antagonists of CCR2” (Janssen Pharmaceutica NV, priority 2010, dated 2015)

target: CCR2 (Homo sapiens (Human), UniProt P41597); assay: MCP-1 Receptor Binding Assay in THP-1 Cells; conditions: 0.5 nM 125I labeled MCP-1, 2 hours at 30° C., read-out: Inhibition of MCP-1 Binding IC50 MCP1B;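 further: THP-1 is a human monocytic cell line, and nonspecific binding was defined with 1 µM unlabeled MCP-1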
Sequence (P41597 whole entry): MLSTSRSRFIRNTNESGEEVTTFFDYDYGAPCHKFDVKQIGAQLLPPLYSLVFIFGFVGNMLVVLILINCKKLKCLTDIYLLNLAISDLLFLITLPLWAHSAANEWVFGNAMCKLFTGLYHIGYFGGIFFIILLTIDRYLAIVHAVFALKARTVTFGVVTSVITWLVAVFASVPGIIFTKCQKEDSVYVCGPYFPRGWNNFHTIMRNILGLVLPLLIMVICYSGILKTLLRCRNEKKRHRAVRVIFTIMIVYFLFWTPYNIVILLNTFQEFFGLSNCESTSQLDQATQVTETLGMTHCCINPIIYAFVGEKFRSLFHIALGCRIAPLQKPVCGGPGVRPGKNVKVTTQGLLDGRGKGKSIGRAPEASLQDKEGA

| SMILES | IC50 |
| --- | --- |
| C=C(C)C(O)[C@H]1CC[C@@H](N2CC(NC(=O)CNc3ncnc4ccc(C(F)(F)F)cc34)C2)CC1 (stereo partly drawn) [Example 96, N-(1-((1R,4s)-4-(1-hydroxy-2-methylallyl)cyclohexyl)azetidin-3-yl)-2-((6-(trifluoromethyl)quinazolin-4-yl)amino)acetamide] | 75 nM |
| CC(=O)N[C@H]1CC[C@@H](N2CC(NC(=O)CNc3ncnc4ccc(C(F)(F)F)cc34)C2)CC1 [Example 41, N-(1-((1s,4s)-4-acetamidocyclohexyl)azetidin-3-yl)-2-((6-(trifluoromethyl)quinazolin-4-yl)amino)acetamide] | 670 nM |
| CC(C)C(O)[C@H]1CC[C@@H](N2CC(NC(=O)CNc3nccc4ccc(C(F)(F)F)cc34)C2)CC1 (stereo partly shown) [Example 169] | 35 nM |
| O=C(CNc1ncnc2ccc(C(F)(F)F)cc12)NC1CN([C@H]2CC[C@@H](CCO)CC2)C1 [Example 108, N-(1-((1s,4s)-4-(2-hydroxyethyl)cyclohexyl)azetidin-3-yl)-2-((6-(trifluoromethyl)quinazolin-4-yl)amino)acetamide] | 19 nM |
| O=C(CNc1ncnc2ccc(C(F)(F)F)cc12)NC1CN([C@H]2CC[C@@H](N3CCC(F)(F)C3)CC2)C1 [Example 131, N-(1-((1s,4s)-4-(3,3-difluoropyrrolidin-1-yl)cyclohexyl)azetidin-3-yl)-2-((6-(trifluoromethyl)quinazolin-4-yl)amino)acetamide] | 300 nM |
| CC(C)(C)OC(=O)NC[C@H]1CC[C@@H](N2CC(NC(=O)CNc3ncnc4ccc(C(F)(F)F)cc34)C2)CC1 [Example 113, tert-butyl (((1s,4s)-4-(3-(2-((6-(trifluoromethyl)quinazolin-4-yl)amino)acetamido)azetidin-1-yl)cyclohexyl)methyl)carbamate] | 120 nM |
| CON(C)C(=O)C1CCC(N2CC(NC(=O)CNc3ncnc4ccc(C(F)(F)F)cc34)C2)CC1 (stereo not shown) [Example 126] | 91 nM |
| O=C(CNc1ncnc2ccc(C(F)(F)F)cc12)NC1CN([C@H]2CC[C@@H](N3CCCO3)CC2)C1 [Example 53, N-(1-((1s,4s)-4-(isoxazolidin-2-yl)cyclohexyl)azetidin-3-yl)-2-((6-(trifluoromethyl)quinazolin-4-yl)amino)acetamide] | 350 nM |
| O=C(CNc1ncnc2ccc(C(F)(F)F)cc12)NC1CN(C2CCC(c3ncccc3O)CC2)C1 (stereo not shown) [Example 1, N-(1-(4-(3-hydroxypyridin-2-yl)cyclohexyl)azetidin-3-yl)-2-((6-(trifluoromethyl)quinazolin-4-yl)amino)acetamide] | 4 nM |
| O=C(CNc1ncnc2ccc(C(F)(F)F)cc12)NC1CN([C@H]2CC[C@@H](N3CCCCO3)CC2)C1 [Example 52, N-(1-((1s,4s)-4-(1,2-oxazinan-2-yl)cyclohexyl)azetidin-3-yl)-2-((6-(trifluoromethyl)quinazolin-4-yl)amino)acetamide] | 64 nM |
| N#Cc1cc(NCC(=O)NC2CN([C@H]3CC[C@@H](n4ccccc4=O)CC3)C2)c2cc(C(F)(F)F)ccc2n1 [Example 60, 2-((2-cyano-6-(trifluoromethyl)quinolin-4-yl)amino)-N-(1-((1s,4s)-4-(2-oxopyridin-1(2H)-yl)cyclohexyl)azetidin-3-yl)acetamide] | 40 nM |
| O=C(CNc1ncnc2ccc(C(F)(F)F)cc12)NC1CN([C@H]2CC[C@@H](C3CCOC(=O)N3)CC2)C1 (stereo partly drawn) [Example 17, N-(1-((1R,4s)-4-(2-oxo-1,3-oxazinan-4-yl)cyclohexyl)azetidin-3-yl)-2-((6-(trifluoromethyl)quinazolin-4-yl)amino)acetamide] | 58 nM |
| CN(C)CC(O)[C@H]1CC[C@@H](N2CC(NC(=O)CNc3ncnc4ccc(C(F)(F)F)cc34)C2)CC1 (stereo partly drawn) [Example 23, N-(1-((1S,4s)-4-(2-(dimethylamino)-1-hydroxyethyl)cyclohexyl)azetidin-3-yl)-2-((6-(trifluoromethyl)quinazolin-4-yl)amino)acetamide] | 714 nM |
| CC1CCC(N2CC(NC(=O)CNc3ncnc4ccc(C(F)(F)F)cc34)C2)CC1 (stereo not shown) [Example 119, N-(1-(4-methylcyclohexyl)azetidin-3-yl)-2-((6-(trifluoromethyl)quinazolin-4-yl)amino)acetamide] | 82 nM |
| C=C(C)[C@H]1CC[C@@H](N2CC(NC(=O)CNc3ncnc4ccc(C(F)(F)F)cc34)C2)CC1 [Example 36, N-(1-((1s,4s)-4-(prop-1-en-2-yl)cyclohexyl)azetidin-3-yl)-2-((6-(trifluoromethyl)quinazolin-4-yl)amino)acetamide] | 75 nM |
| CC(C)(C)OC(=O)NC1CCC(N2CC(NC(=O)CNc3ncnc4ccc(C(F)(F)F)cc34)C2)CC1 (stereo not shown) [Example 125, tert-butyl (4-(3-(2-((6-(trifluoromethyl)quinazolin-4-yl)amino)acetamido)azetidin-1-yl)cyclohexyl)carbamate] | 220 nM |
| O=C(CNc1ncnc2ccc(C(F)(F)F)cc12)NC1CN([C@H]2CC[C@@H](O)CC2)C1 [Example 110, N-(1-((1s,4s)-4-hydroxycyclohexyl)azetidin-3-yl)-2-((6-(trifluoromethyl)quinazolin-4-yl)amino)acetamide] | 68 nM |

| SMILES | IC50 |
| --- | --- |
| O=C(CNc1ncnc2ccc(C(F)(F)F)cc12)NC1CN(C2CCCCC2)C1 [Example 101, N-(1-cyclohexylazetidin-3-yl)-2-((6-(trifluoromethyl)quinazolin-4-yl)amino)acetamide] | 63 nM |
| O=C(CNc1ncnc2ccc(C(F)(F)F)cc12)NC1CN(C2CCC([C@@H](O)C3CC3)CC2)C1 (single isomer, unassigned; (-)) [(−) 6] | 8 nM |
| O=C(CNc1ncnc2ccc(C(F)(F)F)cc12)NC1CN([C@H]2CC[C@@H](C(O)C3CCCC3)CC2)C1 (stereo partly drawn) [Example 94, N-(1-((1S,4s)-4-(cyclopentyl(hydroxy)methyl)cyclohexyl)azetidin-3-yl)-2-((6-(trifluoromethyl)quinazolin-4-yl)amino)acetamide] | 24 nM |
| O=C1C=CCC([C@H]2CC[C@@H](N3CC(NC(=O)CNc4ncnc5ccc(C(F)(F)F)cc45)C3)CC2)N1 (stereo partly drawn) [Example 11, N-(1-((1S,4s)-4-(6-oxo-1,2,3,6-tetrahydropyridin-2-yl)cyclohexyl)azetidin-3-yl)-2-((6-(trifluoromethyl)quinazolin-4-yl)amino)acetamide] | 12 nM |
| CC[C@H](O)[C@H]1CC[C@H](N2CC(NC(=O)CNc3nccc4ncc(C(F)(F)F)cc34)C2)CC1 [Example 151] | > 25000 nM |
| CC[C@@H](O)[C@H]1CC[C@@H](N2CC(NC(=O)CNc3nncc4ccc(C(F)(F)F)cc34)C2)CC1 (stereo in doubt) [Example 153, N-(1-((1R,4s)-4-((S)-1-hydroxypropyl)cyclohexyl)azetidin-3-yl)-2-((7-(trifluoromethyl)phthalazin-1-yl)amino)acetamide] | 15 nM |
| CCCC(O)(CCC)[C@H]1CC[C@@H](N2CC(NC(=O)CNc3ncnc4ccc(C(F)(F)F)cc34)C2)CC1 [Example 32, N-(1-((1s,4s)-4-(4-hydroxyheptan-4-yl)cyclohexyl)azetidin-3-yl)-2-((6-(trifluoromethyl)quinazolin-4-yl)amino)acetamide] | 690 nM |
| CN(C)C(=O)[C@H]1CC[C@@H](N2CC(NC(=O)CNc3ncnc4ccc(C(F)(F)F)cc34)C2)CC1 [Example 128, (1s,4s)-N,N-dimethyl-4-(3-(2-((6-(trifluoromethyl)quinazolin-4-yl)amino)acetamido)azetidin-1-yl)cyclohexanecarboxamide] | 360 nM |
| C=CCC(O)[C@H]1CC[C@@H](N2CC(NC(=O)CNc3ncnc4ccc(C(F)(F)F)cc34)C2)CC1 (stereo partly drawn) [Example 91, N-(1-((1S,4s)-4-(1-hydroxybut-3-en-1-yl)cyclohexyl)azetidin-3-yl)-2-((6-(trifluoromethyl)quinazolin-4-yl)amino)acetamide] | 16 nM |
| COCC[C@H]1CC[C@@H](N2CC(NC(=O)CNc3ncnc4ccc(C(F)(F)F)cc34)C2)CC1 [Example 121, N-(1-((1s,4s)-4-(2-methoxyethyl)cyclohexyl)azetidin-3-yl)-2-((6-(trifluoromethyl)quinazolin-4-yl)amino)acetamide] | 98 nM |
| CC[C@@H](O)[C@H]1CC[C@H](N2CC(NC(=O)CNc3nncc4ccc(C(F)(F)F)cc34)C2)CC1 [Example 154, N-(1-((1R,4r)-4-((R)-1-hydroxypropyl)cyclohexyl)azetidin-3-yl)-2-((7-(trifluoromethyl)phthalazin-1-yl)amino)acetamide] | 6080 nM |
| COCC(O)[C@H]1CC[C@@H](N2CC(NC(=O)CNc3ncnc4ccc(C(F)(F)F)cc34)C2)CC1 (stereo partly drawn) [Example 20, N-(1-((1S,4s)-4-(1-hydroxy-2-methoxyethyl)cyclohexyl)azetidin-3-yl)-2-((6-(trifluoromethyl)quinazolin-4-yl)amino)acetamide] | 58 nM |
| O=C(CNc1ncnc2ccc(C(F)(F)F)cc12)NC1CN([C@H]2CC[C@@H](n3ccccc3=O)CC2)C1 [Example 55, N-(1-((1s,4s)-4-(2-oxopyridin-1-(2H)-yl)cyclohexyl)azetidin-3-yl)-2-((6-(trifluoromethyl)quinazolin-4-yl)amino)acetamide] | 15 nM |
| CCC(=O)N(C)[C@H]1CC[C@@H](N2CC(NC(=O)CNc3ncnc4ccc(C(F)(F)F)cc34)C2)CC1 [Example 45, N-Methyl-N-((1s,4s)-4-(3-(2-((6-(trifluoromethyl)quinazolin-4-yl)amino)acetamido)azetidin-1-yl)cyclohexyl)propionamide] | 390 nM |
| CCC(NC(C)=O)[C@H]1CC[C@@H](N2CC(NC(=O)CNc3ncnc4ccc(C(F)(F)F)cc34)C2)CC1 (stereo partly drawn) [Example 138, N-(1-((1R,4s)-4-((S)-1-acetamidopropyl)cyclohexyl)azetidin-3-yl)-2-((6-(trifluoromethyl)quinazolin-4-yl)amino)acetamide] | 1900 nM |
| CC(C)C(=O)NC[C@H]1CC[C@@H](N2CC(NC(=O)CNc3ncnc4ccc(C(F)(F)F)cc34)C2)CC1 [Example 114] | 280 nM |
| CC(C)c1nc(NCC(=O)NC2CN([C@H]3CC[C@@](O)(c4cncs4)CC3)C2)c2cc(C(F)(F)F)ccc2n1 [Example 88] | 7 nM |
